According to patent US11986493B2 (University of Pittsburgh—Of the Commonwealth System of …, priority 2013, dated 2024):
“Also recorded” adds a separate entry of the source.

System: subjects with pulmonary hypertension (WHO group I PAH, WHO group III PH)
Experiment: Right heart catheterization: right heart/pulmonary artery hemodynamics, thermodilution cardiac output, PVR and SVR after inhaled NO and nebulized nitrite
Type: in vivo, human
Method: A total of 6 subjects with a confirmed diagnosis of pulmonary hypertension and meeting all inclusion/exclusion criteria were enrolled in the study which entailed a single right heart catheterization. The study population consisted of subjects with WHO group I PAH (n=3) and subjects with WHO group III PH (n=3) which received the dose escalation paradigm:
During the study right heart/pulmonary artery hemodynamics were measured as well as noninvasive systemic blood pressure monitoring and simultaneous RV echocardiography. Subjects were tested for the changes in pulmonary vascular resistance (PVR) measured by right heart catheterization and using thermodilution cardiac output measurement at time zero, at times 15, 30 and 45 minutes after completion of each nebulization dose.
Following right heart catheterization, the patient was stabilized for 20 minutes. Baseline blood collections and hemodynamic measurements were performed, followed by treatment with 40 ppm inhaled NO gas for […] with repeat hemodynamic measurements performed.
After stopping inhaled NO gas, a single dose of sildenafil was given if patients were on background sildenafil therapy at previously prescribed doses. 45-minutes after sildenafil dose baseline hemodynamics were performed.
Subjects were monitored carefully during and after the study treatment.
The study was conducted at the 3rd FL Catheterization Laboratory at Presbyterian Hospital of the University of Pittsburgh Medical Center (UPMC). Baseline vasoreactivity was recorded after Inhaled NO at 40 ppm for […]. […] Subjects were instructed to breathe as calmly, and deeply as possible until no more mist was formed in the nebulizer chamber. Subjects were also instructed to hold their breath for approximately 10 seconds after inhalation to allow the study drug to reach deep into the lungs.

[1] = Patient 5, nitrite 45 mg inhaled, 60 min
[2] = Patient 5, nitrite 90 mg inhaled, 15 min
[3] = Patient 5, nitrite 90 mg inhaled, 30 min
[4] = Patient 5, nitrite 90 mg inhaled, 45 min
[5] = Patient 5, nitrite 90 mg inhaled, 60 min

SMILES: O=NO [nitrite, sodium nitrite]
- PCWP [1]: 7
- PVR [1]: 6.50
- PVR/SVR [1]: 0.49
- RA [1]: 3
- RVD [1]: 1
- RVS [1]: 76
- SVR [1]: 13.16
- TPR [1]: 8.07
- mPAP [1]: 36.01
- CI [2]: 2.77
- CO [2]: 4.91
- PAD [2]: 16
- PAS [2]: 76
- PCWP [2]: 2
- PVR [2]: 6.93
- PVR/SVR [2]: 0.50
- RA [2]: 1
- SVR [2]: 13.778
- TPR [2]: 7.33
- mPAP [2]: 36.01
- CI [3]: 2.81
- CO [3]: 4.97
- PAD [3]: 16
- PAS [3]: 69
- PCWP [3]: 3
- PVR [3]: 6.17
- PVR/SVR [3]: 0.47
- RA [3]: 1
- SVR [3]: 13.21
- TPR [3]: 6.78
- mPAP [3]: 33.67
- CI [4]: 2.86
- CO [4]: 5.07
- PAD [4]: 13
- PAS [4]: 70
- PCWP [4]: 3
- PVR [4]: 5.72
- PVR/SVR [4]: 0.47
- RA [4]: 1
- SVR [4]: 12.16
- TPR [4]: 6.31
- mPAP [4]: 32.01
- CI [5]: 3.24
- CO [5]: 5.73
- PAD [5]: 14
- PAS [5]: 74
- PCWP [5]: 3
- PVR [5]: 5.41
- PVR/SVR [5]: 0.44
- RA [5]: 1
- SVR [5]: 12.33
- TPR [5]: 5.93
- mPAP [5]: 34.01
- CI (Patient 6, nitrite 45, 15 min): 2.9849
- CO (Patient 6, nitrite 45, 15 min): 5.94
- PAD (Patient 6, nitrite 45, 15 min): 22
- PAS (Patient 6, nitrite 45, 15 min): 51
- PCWP (Patient 6, nitrite 45, 15 min): 12
- PVR (Patient 6, nitrite 45, 15 min): 3.3116
- PVR/SVR (Patient 6, nitrite 45, 15 min): 0.2878
- RA (Patient 6, nitrite 45, 15 min): 7
- SVR (Patient 6, nitrite 45, 15 min): 11.505
- TPR (Patient 6, nitrite 45, 15 min): 5.3318
- mPAP (Patient 6, nitrite 45, 15 min): 31.671
- CI (Patient 6, nitrite 45, 30 min): 2.8769
- CO (Patient 6, nitrite 45, 30 min): 47.25
- PAD (Patient 6, nitrite 45, 30 min): 20
- PAS (Patient 6, nitrite 45, 30 min): 48
- PCWP (Patient 6, nitrite 45, 30 min): 10
- PVR (Patient 6, nitrite 45, 30 min): 3.3777
- PVR/SVR (Patient 6, nitrite 45, 30 min): 0.2427
- RA (Patient 6, nitrite 45, 30 min): 6
- SVR (Patient 6, nitrite 45, 30 min): 13.917
- TPR (Patient 6, nitrite 45, 30 min): 5.1244
- mPAP (Patient 6, nitrite 45, 30 min): 29.337
- CI (Patient 6, nitrite 45, 45 min): 3.0704
- CO (Patient 6, nitrite 45, 45 min): 6.11
- PAD (Patient 6, nitrite 45, 45 min): 23
- PAS (Patient 6, nitrite 45, 45 min): 52
- PCWP (Patient 6, nitrite 45, 45 min): 9
- PVR (Patient 6, nitrite 45, 45 min): 3.8741
- PVR/SVR (Patient 6, nitrite 45, 45 min): 0.2958
- RA (Patient 6, nitrite 45, 45 min): 6
- SVR (Patient 6, nitrite 45, 45 min): 13.095
- TPR (Patient 6, nitrite 45, 45 min): 5.3471
- mPAP (Patient 6, nitrite 45, 45 min): 32.671
- CI (Patient 6, nitrite 45, 60 min): 2.9196
- CO (Patient 6, nitrite 45, 60 min): 5.81
- PAD (Patient 6, nitrite 45, 60 min): 28
- PAS (Patient 6, nitrite 45, 60 min): 50
- PCWP (Patient 6, nitrite 45, 60 min): 8
- PVR (Patient 6, nitrite 45, 60 min): 4.7053
- PVR/SVR (Patient 6, nitrite 45, 60 min): 0.3417
- RA (Patient 6, nitrite 45, 60 min): 6
- SVR (Patient 6, nitrite 45, 60 min): 13.771
- TPR (Patient 6, nitrite 45, 60 min): 6.0822
- mPAP (Patient 6, nitrite 45, 60 min): 35.338
- CI (Patient 6, nitrite 90, 15 min): 3.3568
- CO (Patient 6, nitrite 90, 15 min): 6.68
- PAD (Patient 6, nitrite 90, 15 min): 24
- PAS (Patient 6, nitrite 90, 15 min): 52
- PCWP (Patient 6, nitrite 90, 15 min): 9
- PVR (Patient 6, nitrite 90, 15 min): 3.6434
- PVR/SVR (Patient 6, nitrite 90, 15 min): 0.3444
- RA (Patient 6, nitrite 90, 15 min): 6
- SVR (Patient 6, nitrite 90, 15 min): 10.58
- TPR (Patient 6, nitrite 90, 15 min): 4.9907
- mPAP (Patient 6, nitrite 90, 15 min): 33.338
- CI (Patient 6, nitrite 90, 30 min): 3.6683
- CO (Patient 6, nitrite 90, 30 min): 7.3
- PAD (Patient 6, nitrite 90, 30 min): 20
- PAS (Patient 6, nitrite 90, 30 min): 48
- PCWP (Patient 6, nitrite 90, 30 min): 6
- PVR (Patient 6, nitrite 90, 30 min): 3.1969
- PVR/SVR (Patient 6, nitrite 90, 30 min): 0.3125
- RA (Patient 6, nitrite 90, 30 min): 6
- SVR (Patient 6, nitrite 90, 30 min): 10.23
- TPR (Patient 6, nitrite 90, 30 min): 4.0188
- mPAP (Patient 6, nitrite 90, 30 min): 29.337
- CI (Patient 6, nitrite 90, 45 min): 3.7085
- CO (Patient 6, nitrite 90, 45 min): 7.38
- PAD (Patient 6, nitrite 90, 45 min): 24
- PAS (Patient 6, nitrite 90, 45 min): 52
- PCWP (Patient 6, nitrite 90, 45 min): 4
- PVR (Patient 6, nitrite 90, 45 min): 3.9753
- PVR/SVR (Patient 6, nitrite 90, 45 min): 0.4074
- RA (Patient 6, nitrite 90, 45 min): 6
- SVR (Patient 6, nitrite 90, 45 min): 9.7574
- TPR (Patient 6, nitrite 90, 45 min): 4.5173
- mPAP (Patient 6, nitrite 90, 45 min): 33.338
- CI (Patient 6, nitrite 90, 60 min): 4.3417
- CO (Patient 6, nitrite 90, 60 min): 8.64
- PAD (Patient 6, nitrite 90, 60 min): 28
- PAS (Patient 6, nitrite 90, 60 min): 55
- PCWP (Patient 6, nitrite 90, 60 min): 4
- PVR (Patient 6, nitrite 90, 60 min): 3.82
- PVR/SVR (Patient 6, nitrite 90, 60 min): 0.4877
- RA (Patient 6, nitrite 90, 60 min): 8
- RVD (Patient 6, nitrite 90, 60 min): 8
- RVS (Patient 6, nitrite 90, 60 min): 47
- SVR (Patient 6, nitrite 90, 60 min): 7.8329
- TPR (Patient 6, nitrite 90, 60 min): 4.2829
- mPAP (Patient 6, nitrite 90, 60 min): 37.005
- RA pressure (right atrial pressure) (patients with PAH (WHO Group 1 and Group 3; n=6), inhaled doses of 45 mg and 90 mg): dose-dependent reduction
- PCWP (pulmonary capillary wedge pressure) (patients with PAH (WHO Group 1 and Group 3; n=6), inhaled doses of 45 mg and 90 mg, listed as inhaled nitrite): lowers; also recorded: dose-dependent reduction
- response of patients non-responsive to inhaled NO (some patients of the study): responsive
